{
  "source": "patent US20210121438A1",
  "about": "“METHODS FOR TREATING OR PREVENTING CONFORMATION DISEASES AND METHODS FOR DRUG SCREENING” (GARAGE BRAIN SCIENCE CO., LTD, priority 2018, published 2021)",
  "type_in_all_cases": "cell-based",
  "key": {"[1]": {"tested_on": "TDP-43-mediated CFTR exon 9 skipping", "assay": "Alternative splicing assay (in vivo splicing, CFTR minigene)", "procedure": "Alternative Splicing Assay: TDP-43-mediated CFTR exon 9 skipping assays were performed as previously described. Briefly, cells were cotransfected with TDP-43 plasmid, hCF-(TG)13(T)5 minigenes and the indicated plasmids, including VCP/p97 wt, VCP/p97 QQ, HSPB1, lamin A or progeria, or HSPB1 siRNA. Total RNA of transfectanted cells was isolated by TRIzol reagent (Invitrogen), and RT-PCR was carried out by Superscript III (Invitrogen) using specific primers to amplify exons 8-10 of CFTR according to the manufacturer's protocol. The relative amounts of cDNA were validated on 1.3% agarose gels. […]"}, "[2]": {"tested_on": "GFP-TDP-43-IIPLD inclusion-expressing 293T cells", "assay": "TDP-43-IIPLD misfolded aggregates in transfected 293T cells (microscopy)", "procedure": "Cell Culture and Drug Treatment: 293T cells were used throughout the experimental studies. 293T cells were grown in Dulbecco's modified Eagle's medium (DMEM)/F12, which was supplemented with 10% fetal bovine serum, 1% penicillin/streptomycin and 1% L-glutamate. Primary cultures of rat hippocampal neurons were prepared from embryonic day 17 rat embryos as previously described by (Wang et al, TDP-43, the signature protein of FTLD-U, is a neuronal activity-responsive factor. J. Neurochem. 105, 79T-806 (2008)). All procedures for handling the rat were carried out in accordance with the guidelines approved by the Institutional Animal Care and Utilization Committee, Academia Sinica. Hippocampal cells were plated on poly-1-lysine-coated coverslides at low density (10,000 cells per cm2) and cultured in the neurobasal medium/B27 (Invitrogen). The 293T cells were transfected using the calcium phosphate protocol according to the manufacturer's instructions and as previously described by Wang et al. (Wang et al., ProcNatlAcadSci USA. 99, 13583-13588 (2002). All of the plasmid constructs were described in Wang et al., Nature Communication, 2012). 293T cells (1×10^5) were seeded in each well of a six-well plate and incubated overnight in a 37° C. incubator with 5% CO2. To determine the effects of off-pathway stabilizers on the reduction of pathological-like aggregates, the cells were treated with baicalein and EGCG for 12, 24, or 48 h with the indicated concentrations (25 or 50 μM).\nGFP-TDP-43 pathological-like (GFP-TDP-43-IIPLD) inclusion-expressing 293T cells were treated with or without 50 μM baicalein for 12 h following microscopic analysis and Western blotting validation. […] (FIG. 2c)."}, "[3]": {"tested_on": "p53 aggregates in 293T cells", "assay": "p53 aggregates in 293T cells / p53 strains (immunofluorescence with p53 antibody)", "conditions": "293T cells", "procedure": "Immunohistochemistry: Fluorescence staining was performed as described previously (Wang et al., 2012). Cells were transfected with or without plasmids or siRNAs and grown for 24 to 48 hr. Cells were fixed with 3.7% paraformaldehyde in PBS at RT for 15 min and then permeabilized with 0.1% Triton X-100. The fixed cells were incubated with primary antibodies at RT for 2 hr followed by incubation with Cy2- or Cy3-labeled secondary antibodies (Molecular Probes). Slides were mounted using Vectashield DAPI H-1200 (Vector). Cellular fluorescence images were collected using an LSM710 META laser-scanning confocal microscope (Zeiss).\nWe observed a striking degree of heterogeneity among p53 aggregates in the cytosol of 293T cells by immunofluorescence with a p53 antibody, including long fibers (5-10 μm), short fibers (1.6-3.2 μm) and punctate aggregates (0.5-1 μm in diameter) (FIG. 16a, arrows). The length of the p53 fibers and p53 aggregates were analyzed (FIG. 16b). […] To determine whether these heterogeneous p53 amyloid patterns are inherited or are random conversions, we subcultured and isolated single colonies from heterogeneous pools of cells. […] We obtained four phenotypes shown in FIG. 16a, including long and short fibers, puncta, and diffuse nuclear staining, and these phenotypes were stably propagated (FIG. 16e). We termed these p53 phenotypes of the isolated strains as follows: p53 [L] (Long fibers), p53 [S] (Short fibers), p53 [P] (Puncta) and p53-NVA (No Visible Aggregates).\nAdditionally, we treated 293T cells with an Aβ amyloid disassembling agent, baicalein, following immunofluorescence staining with anti-p53 antibodies."}, "SMNA7 cells": {"tested_on": "SMNA7 cells", "assay": "Morphology (neurite-like structure) of SMNA7 cells", "conditions": "baicalein", "from_the_text": "(§1) We investigate whether baicalein can act as a pharmacological chaperone to refold misfolded SMNA7 into a functional prion-like domain, as shown in FIG. 8 (FIG. 10a). […] PFN1 is a known SMN interactor in the cytosol. We further examined whether baicalein attenuated the degradation of the SMNA7 protein. […] We found baicalein increased the length of axons from NSC34 cells expressing SMNA7 by approximately 2-fold (FIG. 10g)."}, "[4]": {"tested_on": "SMNA7 aggregates in 293T cells", "assay": "SMNA7 aggregate formation in 293T cells", "from_the_text": "as §1"}, "[5]": {"tested_on": "NSC34 cells expressing SMNA7", "assay": "Axon/neurite length of NSC34 motor neurons expressing SMNA7", "conditions": "NSC34 cells expressing SMNA7, baicalein 50 μM", "from_the_text": "as §1\nWe increased the amount of functional prion-like domains by overexpressing the TDP-43 prion-like domain (TDP-43-PLD) in NSC34 motor neuron cells expressing the SMNA7 proteins to confirm that the reduced level of the functional prion-like conformer caused axon degeneration in SMNΔ7-expressing neurons. The TDP-43-PLD is expected to adopt a common, structurally similar β sheet to compensate for the prion-like function of SMN through hetero-polymerization. […] Thus, the level of the prion-like conformer is critical for motor neuron survival, and other functionally unrelated prion-like proteins can compensate for the function of the defective protein."}, "SMNA7-expressing cells": {"tested_on": "SMNA7-expressing cells", "assay": "Cell viability assay of SMNA7-expressing cells", "conditions": "50 μM baicalein", "from_the_text": "as §1"}},
  "data": [
    {"smiles": "O=c1cc(-c2ccccc2)oc2cc(O)c(O)c(O)c12", "note": "[baicalein]", "values": [
      {"measurement": "CFTR exon 9 skipping", "setting": "[1]; VCP/p97-QQ-expressing cells", "value": "increased CFTR exon 9 skipping"},
      {"measurement": "failure of TDP-43 to promote CFTR exon 9 skipping", "setting": "[1]; cells co-transfected with TDP-43 and VCP/p97 R155H mutant", "value": "corrected"},
      {"measurement": "dysfunction caused by FTLD/ALS-linked sporadic mutation R361S of TDP-43", "setting": "[1]; cells expressing VCP/p97-QQ", "value": "rescued dysfunction"},
      {"measurement": "dysfunction of proline substitution mutant GFP-TDP-43-Q303P", "setting": "[1]; cells expressing VCP/p97-QQ", "value": "rescued dysfunction"},
      {"measurement": "TDP-43 dysfunction (CFTR exon 9 skipping)", "setting": "[1]; cells expressing progeria", "value": "rescued TDP-43 dysfunction caused by progeria in a dose-dependent manner"},
      {"measurement": "restoring ratio of exon skipping", "setting": "[1]; cells expressing progeria, baicalein 10 μm", "value": 1.31},
      {"measurement": "restoring ratio of exon skipping", "setting": "[1]; cells expressing progeria, baicalein 50 μm", "value": 1.91},
      {"measurement": "TDP-43-mediated CFTR exon 9 skipping", "setting": "[1]; cells treated with only baicalein, TDP-43 overexpressed", "value": "enhanced ability to promote the TDP-43-mediated CFTR exon 9 skipping in a dose-dependent manner"},
      {"measurement": "exon skipping of CFTR", "setting": "[1]; without co-overexpressing TDP-43 proteins", "value": "no effect"},
      {"measurement": "TDP-43-IIPLD aggregates, statistical analysis of dose dependence", "setting": "[2]", "value": "dosage-dependent reduction of TDP-43-IIPLD aggregates"},
      {"measurement": "assembly of TDP-43-IIPLD proteinaceous nucleating particles", "setting": "[2]; 50 μM", "value": "inhibited the assembly of TDP-43-IIPLD proteinaceous nucleating particles"},
      {"measurement": "p53 misfolded aggregates", "setting": "[3]; 25 μM baicalein", "value": "reduced p53 misfolded aggregates"},
      {"measurement": "spontaneous aggregation of p53", "setting": "[3]; baicalein", "value": "suppressed the spontaneous aggregation of p53"},
      {"measurement": "neurite-like structure of SMNA7 cells", "setting": "SMNA7 cells", "value": "increased the neurite-like structure of SMNA7 cells"},
      {"measurement": "formation of SMNA7 aggregates", "setting": "[4]", "value": "decreased the formation of SMNA7 aggregates in 293T cells in a dose-dependent manner"},
      {"measurement": "increase of length of axons", "setting": "[5]", "value": "approximately 2 fold"},
      {"measurement": "increase of viability of SMNA7 cells", "setting": "SMNA7-expressing cells", "value": "approximately 2 fold"}
    ]}
  ]
}
